From PubChem BioAssay (NCI)
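Step 1: Grow cells in 96-well plates. Step 2: Expose to compound for 48 hours at 5 concentrations. Step 3: Interpolate endpoints linearly; if unreached, use highest concentration. TGI marks complete inhibition of growth.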

Legend:
Assay in all cases: NCI tumour cell line growth inhibition, 48 h
DMS 114 small cell lung = test system: DMS 114 small cell lung
DMS 273 small cell lung = test system: DMS 273 small cell lung
M19-MEL melanoma = test system: M19-MEL melanoma
P388 leukemia = test system: P388 leukemia
P388/ADR leukemia = test system: P388/ADR leukemia
SN12K1 renal = test system: SN12K1 renal
XF 498 CNS = test system: XF 498 CNS
LXFL 529 NSCLC = test system: LXFL 529 NSCLC

CCOC(=O)/C=C/c1c(C)[nH]c(=O)[nH]c1=O
TGI (DMS 114 small cell lung): > 250 µM
TGI (DMS 273 small cell lung): > 250 µM
TGI (M19-MEL melanoma): > 250 µM
TGI (P388 leukemia): > 141 µM
TGI (P388/ADR leukemia): > 158 µM
TGI (SN12K1 renal): > 250 µM
TGI (XF 498 CNS): > 250 µM

C/C(=N\NC(=S)N1CCC(N2CCCCC2)CC1)c1ccccn1
TGI (DMS 114 small cell lung): 8.86 µM
TGI (DMS 273 small cell lung): 9.43 µM
TGI (LXFL 529 NSCLC): 13.6 µM
TGI (M19-MEL melanoma): 12.6 µM
TGI (XF 498 CNS): 19.6 µM

c1cc2c3c(c1)c1cc4c(cc1c[n+]3CC2)OCO4
TGI (DMS 114 small cell lung): 9.27 µM
TGI (DMS 273 small cell lung): 30.5 µM
TGI (M19-MEL melanoma): 5.21 µM
TGI (P388 leukemia): 4.22 µM
TGI (P388/ADR leukemia): > 225 µM
TGI (SN12K1 renal): 12.2 µM
TGI (XF 498 CNS): 10.9 µM

O=C(NN1C(=O)C(Cl)C1c1cccc([N+](=O)[O-])c1)c1ccccc1O (stereo not drawn)
TGI (DMS 114 small cell lung): > 100 µM
TGI (LXFL 529 NSCLC): > 100 µM
TGI (M19-MEL melanoma): > 100 µM
TGI (XF 498 CNS): > 100 µM
